{"source": "paper PMC5078040", "about": "(Oncotarget, 2016)", "assay_in_all_cases": "KinomeScan", "assay_type_in_all_cases": "binding", "settings_in_all_cases": "1uM", "key": {"[1]": {"molecular_target": "T1, ABL1(H396P)-phosphorylated (Homo sapiens, UniProt P00519, H396P)", "T1 construct": "purchased DiscoveRx KINOMEscan"}, "[2]": {"molecular_target": "T2, ABL1(T315I)-nonphosphorylated (Homo sapiens, UniProt P00519, T315I)", "T2 construct": "purchased DiscoveRx KINOMEscan"}, "[3]": {"molecular_target": "T3, ABL1(Y253F)-phosphorylated (Homo sapiens, UniProt P00519, Y253F)", "T3 construct": "purchased DiscoveRx KINOMEscan"}, "ABL2": {"molecular_target": "T4, ABL2 (Homo sapiens, UniProt P42684)", "T4 construct": "purchased DiscoveRx KINOMEscan"}, "AMPK-alpha1": {"molecular_target": "T5, AMPK-alpha1 (Homo sapiens, UniProt Q13131)", "T5 construct": "purchased DiscoveRx KINOMEscan"}, "BRAF(V600E)": {"molecular_target": "T6, BRAF(V600E) (Homo sapiens, UniProt P15056, V600E)", "T6 construct": "purchased DiscoveRx KINOMEscan", "T6 sequence (P15056 whole entry V600E)": "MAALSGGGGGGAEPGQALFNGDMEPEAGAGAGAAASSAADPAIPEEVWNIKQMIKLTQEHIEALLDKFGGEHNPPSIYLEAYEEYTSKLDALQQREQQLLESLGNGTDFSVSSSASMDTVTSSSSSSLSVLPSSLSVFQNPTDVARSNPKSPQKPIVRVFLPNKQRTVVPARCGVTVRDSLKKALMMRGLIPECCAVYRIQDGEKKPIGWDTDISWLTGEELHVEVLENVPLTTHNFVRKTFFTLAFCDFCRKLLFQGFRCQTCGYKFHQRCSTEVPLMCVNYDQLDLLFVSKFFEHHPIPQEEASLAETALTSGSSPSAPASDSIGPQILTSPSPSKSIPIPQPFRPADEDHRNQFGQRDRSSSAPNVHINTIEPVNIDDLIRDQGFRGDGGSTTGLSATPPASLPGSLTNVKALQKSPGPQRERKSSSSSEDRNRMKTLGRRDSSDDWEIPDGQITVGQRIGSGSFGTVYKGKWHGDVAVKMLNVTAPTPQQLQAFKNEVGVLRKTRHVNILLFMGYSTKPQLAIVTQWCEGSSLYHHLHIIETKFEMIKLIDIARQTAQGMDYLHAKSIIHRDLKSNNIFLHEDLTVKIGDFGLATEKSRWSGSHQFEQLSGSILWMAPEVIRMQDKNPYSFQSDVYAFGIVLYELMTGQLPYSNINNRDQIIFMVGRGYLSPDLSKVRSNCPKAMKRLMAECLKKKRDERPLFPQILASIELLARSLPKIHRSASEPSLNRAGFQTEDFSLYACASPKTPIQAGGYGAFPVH"}, "CHEK1": {"molecular_target": "T7, CHEK1 (Homo sapiens, UniProt O14757)", "T7 construct": "purchased DiscoveRx KINOMEscan"}, "CSNK1G1": {"molecular_target": "T8, CSNK1G1 (Homo sapiens, UniProt Q9HCP0)", "T8 construct": "purchased DiscoveRx KINOMEscan"}, "CTK": {"molecular_target": "T9, CTK (Homo sapiens, UniProt P42679)", "T9 construct": "purchased DiscoveRx KINOMEscan"}, "DDR2": {"molecular_target": "T10, DDR2 (Homo sapiens, UniProt Q16832)", "T10 construct": "purchased DiscoveRx KINOMEscan"}, "DMPK": {"molecular_target": "T11, DMPK (Homo sapiens, UniProt Q09013)", "T11 construct": "purchased DiscoveRx KINOMEscan"}, "DYRK2": {"molecular_target": "T12, DYRK2 (Homo sapiens, UniProt Q92630)", "T12 construct": "purchased DiscoveRx KINOMEscan"}, "EGFR(E746-A750del)": {"molecular_target": "T13, EGFR(E746-A750del) (Homo sapiens, UniProt P00533, DEL746-750)", "T13 construct": "purchased DiscoveRx KINOMEscan", "T13 sequence (P00533 with tags, fused parts or gaps DEL746-750 limits assumed)": "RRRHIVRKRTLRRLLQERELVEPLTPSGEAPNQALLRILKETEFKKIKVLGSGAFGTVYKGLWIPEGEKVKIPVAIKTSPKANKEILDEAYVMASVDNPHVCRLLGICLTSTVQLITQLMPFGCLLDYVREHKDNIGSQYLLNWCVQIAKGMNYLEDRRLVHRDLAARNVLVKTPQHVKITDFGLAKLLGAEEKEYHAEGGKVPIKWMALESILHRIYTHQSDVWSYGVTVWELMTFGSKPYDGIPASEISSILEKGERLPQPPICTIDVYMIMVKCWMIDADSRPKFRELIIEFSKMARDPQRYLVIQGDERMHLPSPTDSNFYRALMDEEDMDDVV"}, "EPHA4": {"molecular_target": "T14, EPHA4 (Homo sapiens, UniProt P54764)", "T14 construct": "purchased DiscoveRx KINOMEscan", "T14 sequence (P54764 20-986)": "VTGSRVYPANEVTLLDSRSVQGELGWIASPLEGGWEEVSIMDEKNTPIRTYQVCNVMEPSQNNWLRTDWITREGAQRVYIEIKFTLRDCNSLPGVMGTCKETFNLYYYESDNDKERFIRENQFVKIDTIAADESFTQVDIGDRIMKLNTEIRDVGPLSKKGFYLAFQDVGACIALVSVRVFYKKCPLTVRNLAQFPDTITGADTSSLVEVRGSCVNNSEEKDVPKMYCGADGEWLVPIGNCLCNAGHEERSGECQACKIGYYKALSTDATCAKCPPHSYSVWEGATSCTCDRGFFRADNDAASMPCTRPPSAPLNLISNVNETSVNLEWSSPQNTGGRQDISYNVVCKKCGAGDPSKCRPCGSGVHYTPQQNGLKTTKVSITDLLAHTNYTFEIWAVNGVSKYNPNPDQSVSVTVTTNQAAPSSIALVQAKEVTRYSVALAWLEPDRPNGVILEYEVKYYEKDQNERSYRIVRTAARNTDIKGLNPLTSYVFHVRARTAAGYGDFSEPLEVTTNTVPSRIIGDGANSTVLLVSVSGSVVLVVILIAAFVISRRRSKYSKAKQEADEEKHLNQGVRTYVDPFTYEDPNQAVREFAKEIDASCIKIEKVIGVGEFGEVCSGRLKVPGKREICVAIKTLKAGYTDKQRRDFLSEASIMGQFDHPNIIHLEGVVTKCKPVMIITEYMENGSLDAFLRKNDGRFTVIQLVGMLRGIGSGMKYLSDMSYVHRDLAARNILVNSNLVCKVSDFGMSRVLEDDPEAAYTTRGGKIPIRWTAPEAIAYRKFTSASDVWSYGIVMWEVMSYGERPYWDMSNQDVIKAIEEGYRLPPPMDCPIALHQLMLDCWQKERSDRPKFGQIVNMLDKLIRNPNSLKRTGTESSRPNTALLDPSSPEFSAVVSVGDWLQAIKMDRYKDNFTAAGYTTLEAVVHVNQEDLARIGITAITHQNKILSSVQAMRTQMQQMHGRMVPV"}, "ERK4": {"molecular_target": "T15, ERK4 (Homo sapiens, UniProt P31152)", "T15 construct": "purchased DiscoveRx KINOMEscan"}, "HIPK4": {"molecular_target": "T16, HIPK4 (Homo sapiens, UniProt Q8NE63)", "T16 construct": "purchased DiscoveRx KINOMEscan"}, "HUNK": {"molecular_target": "T17, HUNK (Homo sapiens, UniProt P57058)", "T17 construct": "purchased DiscoveRx KINOMEscan"}, "IRAK3": {"molecular_target": "T18, IRAK3 (Homo sapiens, UniProt Q9Y616)", "T18 construct": "purchased DiscoveRx KINOMEscan"}, "LCK": {"molecular_target": "T19, LCK (Homo sapiens, UniProt P06239)", "T19 construct": "purchased DiscoveRx KINOMEscan"}, "LTK": {"molecular_target": "T20, LTK (Homo sapiens, UniProt P29376)", "T20 construct": "purchased DiscoveRx KINOMEscan", "T20 sequence (P29376 17-864)": "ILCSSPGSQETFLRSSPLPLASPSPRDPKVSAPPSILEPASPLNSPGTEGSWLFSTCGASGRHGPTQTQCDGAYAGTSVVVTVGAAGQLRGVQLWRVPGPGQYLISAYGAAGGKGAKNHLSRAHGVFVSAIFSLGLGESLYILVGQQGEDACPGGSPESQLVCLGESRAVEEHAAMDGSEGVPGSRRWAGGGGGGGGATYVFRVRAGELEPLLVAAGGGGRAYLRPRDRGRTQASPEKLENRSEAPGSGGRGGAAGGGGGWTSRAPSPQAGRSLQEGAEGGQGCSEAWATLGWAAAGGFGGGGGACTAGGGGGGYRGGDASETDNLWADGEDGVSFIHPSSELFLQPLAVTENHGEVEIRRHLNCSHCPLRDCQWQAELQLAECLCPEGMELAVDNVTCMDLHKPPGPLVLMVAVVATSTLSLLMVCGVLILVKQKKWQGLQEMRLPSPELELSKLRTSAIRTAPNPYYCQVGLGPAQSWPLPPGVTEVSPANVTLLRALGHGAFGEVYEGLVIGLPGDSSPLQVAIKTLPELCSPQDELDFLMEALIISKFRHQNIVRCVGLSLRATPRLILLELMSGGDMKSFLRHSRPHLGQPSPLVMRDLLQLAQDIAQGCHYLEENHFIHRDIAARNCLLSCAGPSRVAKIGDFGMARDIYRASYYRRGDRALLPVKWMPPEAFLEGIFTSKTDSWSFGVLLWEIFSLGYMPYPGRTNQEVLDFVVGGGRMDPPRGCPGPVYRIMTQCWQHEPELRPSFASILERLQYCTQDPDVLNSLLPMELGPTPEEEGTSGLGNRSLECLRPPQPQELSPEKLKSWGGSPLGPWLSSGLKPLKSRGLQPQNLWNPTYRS"}, "MAP3K4": {"molecular_target": "T21, MAP3K4 (Homo sapiens, UniProt Q9Y6R4)", "T21 construct": "purchased DiscoveRx KINOMEscan"}, "MAP4K3": {"molecular_target": "T22, MAP4K3 (Homo sapiens, UniProt Q8IVH8)", "T22 construct": "purchased DiscoveRx KINOMEscan"}, "MAP4K4": {"molecular_target": "T23, MAP4K4 (Homo sapiens, UniProt O95819)", "T23 construct": "purchased DiscoveRx KINOMEscan"}, "MET(M1250T)": {"molecular_target": "T24, MET(M1250T) (Homo sapiens, UniProt P08581, M1250T)", "T24 construct": "purchased DiscoveRx KINOMEscan"}, "MKNK2": {"molecular_target": "T25, MKNK2 (Homo sapiens, UniProt Q9HBH9)", "T25 construct": "purchased DiscoveRx KINOMEscan"}, "MYO3A": {"molecular_target": "T26, MYO3A (Homo sapiens, UniProt Q8NEV4)", "T26 construct": "purchased DiscoveRx KINOMEscan"}, "NEK1": {"molecular_target": "T27, NEK1 (Homo sapiens, UniProt Q96PY6)", "T27 construct": "purchased DiscoveRx KINOMEscan"}, "NEK9": {"molecular_target": "T28, NEK9 (Homo sapiens, UniProt Q8TD19)", "T28 construct": "purchased DiscoveRx KINOMEscan"}, "NLK": {"molecular_target": "T29, NLK (Homo sapiens, UniProt Q9UBE8)", "T29 construct": "purchased DiscoveRx KINOMEscan"}, "PCTK2": {"molecular_target": "T30, PCTK2 (Homo sapiens, UniProt Q00537)", "T30 construct": "purchased DiscoveRx KINOMEscan"}, "PFCDPK1(P.falciparum)": {"molecular_target": "T31, PFCDPK1(P.falciparum) (Plasmodium falciparum, UniProt P62344)", "T31 construct": "purchased DiscoveRx KINOMEscan"}, "PHKG1": {"molecular_target": "T32, PHKG1 (Homo sapiens, UniProt Q16816)", "T32 construct": "purchased DiscoveRx KINOMEscan"}, "PIK3C2G": {"molecular_target": "T33, PIK3C2G (Homo sapiens, UniProt O75747)", "T33 construct": "purchased DiscoveRx KINOMEscan"}, "PIK3CA(E542K)": {"molecular_target": "T34, PIK3CA(E542K) (Homo sapiens, UniProt P42336, E542K)", "T34 construct": "purchased DiscoveRx KINOMEscan", "T34 sequence (P42336 whole entry E542K)": "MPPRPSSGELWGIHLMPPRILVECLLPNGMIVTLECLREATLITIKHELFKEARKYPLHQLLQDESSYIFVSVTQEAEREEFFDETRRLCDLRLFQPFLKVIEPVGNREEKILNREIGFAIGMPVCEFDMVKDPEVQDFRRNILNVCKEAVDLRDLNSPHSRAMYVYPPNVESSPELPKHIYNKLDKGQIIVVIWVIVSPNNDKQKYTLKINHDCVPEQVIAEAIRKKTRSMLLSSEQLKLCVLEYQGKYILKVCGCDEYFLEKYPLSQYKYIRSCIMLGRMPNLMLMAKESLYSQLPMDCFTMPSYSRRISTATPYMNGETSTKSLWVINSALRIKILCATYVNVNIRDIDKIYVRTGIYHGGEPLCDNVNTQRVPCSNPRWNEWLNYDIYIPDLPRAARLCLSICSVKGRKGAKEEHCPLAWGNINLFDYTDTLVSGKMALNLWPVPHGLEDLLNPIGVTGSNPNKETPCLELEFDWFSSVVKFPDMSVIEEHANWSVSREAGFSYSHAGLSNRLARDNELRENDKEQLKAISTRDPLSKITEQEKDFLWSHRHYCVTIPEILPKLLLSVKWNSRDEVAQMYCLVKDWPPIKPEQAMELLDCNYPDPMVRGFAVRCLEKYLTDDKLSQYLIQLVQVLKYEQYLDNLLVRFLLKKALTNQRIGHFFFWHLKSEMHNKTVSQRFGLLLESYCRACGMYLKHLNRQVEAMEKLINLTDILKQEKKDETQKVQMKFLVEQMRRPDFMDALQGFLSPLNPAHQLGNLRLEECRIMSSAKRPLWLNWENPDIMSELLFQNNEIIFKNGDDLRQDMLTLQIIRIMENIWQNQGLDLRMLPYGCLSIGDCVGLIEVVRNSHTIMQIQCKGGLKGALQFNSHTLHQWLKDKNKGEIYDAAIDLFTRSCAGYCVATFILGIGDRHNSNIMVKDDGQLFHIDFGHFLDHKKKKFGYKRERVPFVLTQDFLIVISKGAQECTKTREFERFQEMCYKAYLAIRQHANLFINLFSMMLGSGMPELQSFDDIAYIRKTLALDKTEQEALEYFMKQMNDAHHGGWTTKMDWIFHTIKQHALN"}, "PIK3CA(E545K)": {"molecular_target": "T35, PIK3CA(E545K) (Homo sapiens, UniProt P42336, E545K)", "T35 construct": "purchased DiscoveRx KINOMEscan"}, "PIP5K1A": {"molecular_target": "T36, PIP5K1A (Homo sapiens, UniProt Q99755)", "T36 construct": "purchased DiscoveRx KINOMEscan"}, "PKMYT1": {"molecular_target": "T37, PKMYT1 (Homo sapiens, UniProt Q99640)", "T37 construct": "purchased DiscoveRx KINOMEscan"}, "PLK4": {"molecular_target": "T38, PLK4 (Homo sapiens, UniProt O00444)", "T38 construct": "purchased DiscoveRx KINOMEscan"}, "PYK2": {"molecular_target": "T39, PYK2 (Homo sapiens, UniProt Q14289)", "T39 construct": "purchased DiscoveRx KINOMEscan"}, "RET": {"molecular_target": "T40, RET (Homo sapiens, UniProt P07949)", "T40 construct": "purchased DiscoveRx KINOMEscan", "T40 sequence (P07949 29-1114)": "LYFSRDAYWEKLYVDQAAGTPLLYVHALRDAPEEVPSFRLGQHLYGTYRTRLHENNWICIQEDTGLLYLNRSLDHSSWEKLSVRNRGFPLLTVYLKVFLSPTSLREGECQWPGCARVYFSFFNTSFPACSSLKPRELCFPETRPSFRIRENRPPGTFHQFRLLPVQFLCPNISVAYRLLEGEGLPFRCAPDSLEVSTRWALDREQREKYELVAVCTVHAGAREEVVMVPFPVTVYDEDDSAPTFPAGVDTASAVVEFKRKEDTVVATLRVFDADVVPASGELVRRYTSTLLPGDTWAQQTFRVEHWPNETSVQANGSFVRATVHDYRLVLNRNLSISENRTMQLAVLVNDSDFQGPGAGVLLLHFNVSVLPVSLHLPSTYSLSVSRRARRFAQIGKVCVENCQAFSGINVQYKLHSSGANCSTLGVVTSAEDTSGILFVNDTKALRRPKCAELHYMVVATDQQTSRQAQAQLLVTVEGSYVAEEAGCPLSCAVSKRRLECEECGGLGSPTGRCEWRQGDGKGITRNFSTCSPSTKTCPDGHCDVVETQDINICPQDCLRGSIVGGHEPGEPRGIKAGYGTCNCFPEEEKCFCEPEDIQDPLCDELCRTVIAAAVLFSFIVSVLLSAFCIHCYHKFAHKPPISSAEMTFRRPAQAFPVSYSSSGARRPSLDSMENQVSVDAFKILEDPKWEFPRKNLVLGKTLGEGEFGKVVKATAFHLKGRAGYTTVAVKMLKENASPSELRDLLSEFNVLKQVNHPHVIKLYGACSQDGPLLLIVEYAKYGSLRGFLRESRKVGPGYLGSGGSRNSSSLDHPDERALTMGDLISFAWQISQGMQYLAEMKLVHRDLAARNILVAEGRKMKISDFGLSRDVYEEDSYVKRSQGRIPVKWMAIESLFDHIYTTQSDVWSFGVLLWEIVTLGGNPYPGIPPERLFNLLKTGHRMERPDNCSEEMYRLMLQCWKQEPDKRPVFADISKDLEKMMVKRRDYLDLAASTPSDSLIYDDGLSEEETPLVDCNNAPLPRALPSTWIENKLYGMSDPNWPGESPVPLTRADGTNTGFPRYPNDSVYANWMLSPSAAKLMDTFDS"}, "RIOK1": {"molecular_target": "T41, RIOK1 (Homo sapiens, UniProt Q9BRS2)", "T41 construct": "purchased DiscoveRx KINOMEscan"}, "RIPK1": {"molecular_target": "T42, RIPK1 (Homo sapiens, UniProt Q13546)", "T42 construct": "purchased DiscoveRx KINOMEscan"}, "S6K1": {"molecular_target": "T43, S6K1 (Homo sapiens, UniProt P23443)", "T43 construct": "purchased DiscoveRx KINOMEscan"}}, "data": [{"compound": "Cc1nc(NC(=O)[C@@H](N)C(C)C)sc1-c1cnc(Cl)c(NS(=O)(=O)c2ccccc2)c1", "note": "[PI3KD-IN-015]", "values": [{"measurement": "KinomeScan ABL1(H396P)-phosphorylated", "setting": "[1]", "result": 78}, {"measurement": "KinomeScan ABL1(T315I)-nonphosphorylated", "setting": "[2]", "result": 100}, {"measurement": "KinomeScan ABL1(Y253F)-phosphorylated", "setting": "[3]", "result": 100}, {"measurement": "KinomeScan ABL2", "setting": "ABL2", "result": 99}, {"measurement": "KinomeScan AMPK-alpha1", "setting": "AMPK-alpha1", "result": 100}, {"measurement": "KinomeScan BRAF(V600E)", "setting": "BRAF(V600E)", "result": 100}, {"measurement": "KinomeScan CHEK1", "setting": "CHEK1", "result": 100}, {"measurement": "KinomeScan CSNK1G1", "setting": "CSNK1G1", "result": 100}, {"measurement": "KinomeScan CTK", "setting": "CTK", "result": 93}, {"measurement": "KinomeScan DDR2", "setting": "DDR2", "result": 96}, {"measurement": "KinomeScan DMPK", "setting": "DMPK", "result": 83}, {"measurement": "KinomeScan DYRK2", "setting": "DYRK2", "result": 100}, {"measurement": "KinomeScan EGFR(E746-A750del)", "setting": "EGFR(E746-A750del)", "result": 100}, {"measurement": "KinomeScan EPHA4", "setting": "EPHA4", "result": 100}, {"measurement": "KinomeScan ERK4", "setting": "ERK4", "result": 100}, {"measurement": "KinomeScan HIPK4", "setting": "HIPK4", "result": 83}, {"measurement": "KinomeScan HUNK", "setting": "HUNK", "result": 100}, {"measurement": "KinomeScan IRAK3", "setting": "IRAK3", "result": 100}, {"measurement": "KinomeScan LCK", "setting": "LCK", "result": 100}, {"measurement": "KinomeScan LTK", "setting": "LTK", "result": 100}, {"measurement": "KinomeScan MAP3K4", "setting": "MAP3K4", "result": 100}, {"measurement": "KinomeScan MAP4K3", "setting": "MAP4K3", "result": 91}, {"measurement": "KinomeScan MAP4K4", "setting": "MAP4K4", "result": 100}, {"measurement": "KinomeScan MET(M1250T)", "setting": "MET(M1250T)", "result": 74}, {"measurement": "KinomeScan MKNK2", "setting": "MKNK2", "result": 98}, {"measurement": "KinomeScan MYO3A", "setting": "MYO3A", "result": 94}, {"measurement": "KinomeScan NEK1", "setting": "NEK1", "result": 100}, {"measurement": "KinomeScan NEK9", "setting": "NEK9", "result": 100}, {"measurement": "KinomeScan NLK", "setting": "NLK", "result": 92}, {"measurement": "KinomeScan PCTK2", "setting": "PCTK2", "result": 100}, {"measurement": "KinomeScan PFCDPK1(P.falciparum)", "setting": "PFCDPK1(P.falciparum)", "result": 100}, {"measurement": "KinomeScan PHKG1", "setting": "PHKG1", "result": 100}, {"measurement": "KinomeScan PIK3C2G", "setting": "PIK3C2G", "result": 65}, {"measurement": "KinomeScan PIK3CA(E542K)", "setting": "PIK3CA(E542K)", "result": 5.4}, {"measurement": "KinomeScan PIK3CA(E545K)", "setting": "PIK3CA(E545K)", "result": 6.4}, {"measurement": "KinomeScan PIP5K1A", "setting": "PIP5K1A", "result": 84}, {"measurement": "KinomeScan PKMYT1", "setting": "PKMYT1", "result": 100}, {"measurement": "KinomeScan PLK4", "setting": "PLK4", "result": 99}, {"measurement": "KinomeScan PYK2", "setting": "PYK2", "result": 95}, {"measurement": "KinomeScan RET", "setting": "RET", "result": 100}, {"measurement": "KinomeScan RIOK1", "setting": "RIOK1", "result": 94}, {"measurement": "KinomeScan RIPK1", "setting": "RIPK1", "result": 100}, {"measurement": "KinomeScan S6K1", "setting": "S6K1", "result": 100}]}]}
